We go through two molecules from article PMC8558179, “The C-terminal peptide of CCL21 drastically augments CCL21 activity through the dendritic cell lymph node homing receptor CCR7 by interaction with the receptor N-terminus” (Cellular and Molecular Life Sciences: CMLS, 2021).

The test system of assay [1] is human moDCs naturally expressing CCR7. The assay is described as follows: 3D chemotaxis, time-lapse recording of human moDCs in Collagen I (chemotactic index). The class given is cell-based. The protocol: Buffy coats were obtained from Rigshospitalet Copenhagen, as anonymous material, with written informed consent from the donors. The local ethics committee at Faculty of Health and Medical Sciences at the University of Copenhagen (Research Ethics Committee for Sund and Science, University of Copenhagen) found the project exempt from approval. DCs were prepared from human peripheral blood mononuclear cells (PBMC) isolated from buffy coats by centrifugation on a Lymphoprep gradient as previously described. Briefly, monocytes were isolated by plastic adherence of PBMC. Adhered monocytes were subsequently cultured and differentiated into immature DCs by incubation with IL-4 (250 U/ml) and GM-CSF (1000 U/ml) for 6 days, followed by activation into mature DCs by incubation with IL-6 (1000 U/ml), IL-1β (1000 U/ml), TNF-α (1000 U/ml), and PGE2 (1 µg/ml) for an additional 2 days in the same medium.
Human DCs were cultured in X-vivo 15 medium with 2% human AB serum and glutamine. CHO-K1 pgsB-618 ATCC® CRL2241™ [24] and CHO-K1 cells were grown in RPMI with 10% FBS and Penicillin/Streptomycin. HS^−/− (CHO EXTL 2/3 −/−), CS^−/− (CSGALNACT 1/2^−/− CHSY1^−/−), 5xKO (GalNAc-T1, 2, 4, 7 and 10 −/−) and WT CHO suspension cells were grown in suspension in 1:1 of EX-Cell CD CHO fusion media and Balanced CD CHO growth A medium supplemented with 2% glutamine and Penicillin/Streptomycin. Cells were kept in a humidified incubator at 37 °C, 5% CO2.
Chemotaxis assays were conducted as previously described. Briefly, mature human moDCs were left to acclimatize in medium for 30 min at room temperature (RT) upon defrosting, before assay start. DCs were seeded in Bovine Collagen I mixture prepared by mixing 10 µl Na2HCO3 (7.5%), 20 µl MEM (10×), 150 µl PureCol and 90 µl DCs dissolved in X-vivo 15 medium (2 × 10^6 cells/ml). After incubation for 45 min in a humidified incubator at 37 °C (5% CO2), the source and sink reservoirs were filled according to the manufacturer’s instructions and chemotaxis was tracked in a time-lapse microscope with a humidified temperature controlled stage incubator for 12 h at a 2 min interval. Cell migration (approximately 20–40 cells per viewing field) was tracked using a commercial tracking program (Autozell) and subsequently analyzed to get a population-based chemotactic index (CI) value (MATLAB). CI is a measure of net translocation distance to the source relative to total distance traveled and was thus calculated as the ratio of the distance traveled in the direction of the gradient over the total distance traveled and therefore is a conservative measure of the directedness of cell migration.

Assay [2] has as its system CCL21. Conditions: cited from earlier work. The source says:
Another phenomenon that could explain the C21TP boosting ability would be that the peptide was able to relieve the auto-inhibition of CCL21. The peptide could potentially occupy the site on CCL21 normally contacted by the attached basic C-terminus during the auto-inhibition process, in this way preventing the formation of the locked CCL21 version. In this way the peptide could participate in unfolding of CCL21, similar to the process that is predicted to take place in the presence of polysialic acid residues. The boosting effect of C21TP on CCL19 could also be based on a direct chemokin ...

In assay [3] the test system is CCR7 (primary T cells). The settings on record: heterologous competition binding, apparent affinity; cited from earlier work. An excerpt:
In the absence of peptide, CCL19 and CCL21 contact CCR7 in different manners. The interaction of CCL21 depends on residues in the top of TM-3, -4 and -5 that are not important for CCL19 interaction with CCR7. The binding of these two chemokines induce different structural changes in CCR7 to disrupt old and create new hydrogen bonds. CCL21 binding to CCR7 is believed to involve movements within the majority of helical domains (TM2, -3, -4, -5, -6, and -7), whereas the changes induced by CCL19 are restricted to regions of TM3, -5, and -6 [37]. The conformational changes in CCR7 ind ...

In assay [4] the test system is Collagen I. The settings on record: cited from earlier work. An excerpt: In the current study we have used Collagen I in the 3D chemotaxis assays. Collagen I has low affinity for CCL21 [31]. Matrigel on the other hand binds CCL21 well. As CCL21 is immobilized in vivo [20], to evaluate the full effect of C21TP on dendritic cell migration, experiments using Matrigel would need to be conducted. Such assay could reveal if C21TP affect the interaction between CCR7 and immobilized CCL21 where the basic tail is participating in surface tethering and potentially unable to engage in steric hindrance of CCR7. Again, since boosting of in vitro signaling occurred in both p ...

For “TP71-111: free CCL21 C-terminal peptide, residues 71–111 (41 amino acids, positively charged) (PSPQKPAQGCRKDRGASKTGKKGKGSKGCKRTERSQTPKGP; UniProt O00585 94-134, looked up, fragment)”, in assay [1] (10 nM CCL19 + 10 µM TP71-111, human moDCs, n = 3–6), the “increase of CCL19-induced DC chemotaxis” value is “significantly increased in the presence of 10 µM C21TP (TP71-111), by approximately twofold”. Further, the “fold boost of CCL21-induced DC chemotaxis (immune cell recruiting activity)” value in assay [1] (10 nM CCL21, highest C21TP concentration 10 µM (0.1–10 µM tested), human moDCs, 12 h tracking, 37 °C, n = 3–11) is given as “up to 25 fold”. Further, in assay [1] (10 nM CCL21, peptide 10 µM (0.1–10 µM in the dose series), human moDCs), the “boosting of CCL21-induced DC chemotaxis” value is “boosted significantly by the C21TP in a dose-dependent manner”. Also, the “DC chemotaxis by C21TP alone” value in assay [1] (C21TP without chemokine, data not shown) is “did not induce DC chemotaxis”.

B1: CCL21: full-length chemokine (residues 1–111), CCR7 ligand, from R&D Systems (protein, UniProt O00585 24-134, looked up)
C-C motif chemokine 21: SDGGAQDCCLKYSQRKIPAKVVRSYRKQEPSLGCSIPAILFLPRKRSQAELCADPKELWVQQLMQHLDKTPSPQKPAQGCRKDRGASKTGKKGKGSKGCKRTERSQTPKGP
For the molecule B1, in assay [2], the CCL21 self-association entry was “weak and only detectable at mM concentrations”. The “fold lower binding affinity of CCL21 in primary T cells” value in assay [3] was “sixfold lower binding affinity”. Besides, in assay [1] (10 nM chemokine, no peptide, human moDCs), the “chemotaxis towards chemokine alone” value is “very weak chemotactic cue”. For the same molecule, the “affinity of Collagen I for CCL21” value in assay [4] is “low affinity”.
